Assay results reported in patent publication US20260193293A1, “PEPTIDES CAPABLE OF INHIBITING PROTEIN-PROTEIN INTERACTIONS AT GABAB1A SUBUNIT AND USES THEREOF” (UNIVERSITY OF COPENHAGEN, priority 2022, published 2026).
Like-named read-outs stand apart in the source and are kept apart here. Each block holds one molecule with its values, some of them ahead of it. Residues, ends and D or L forms follow the SMILES beside them.

Molecular target: Sushi domains (SD1/2) protein
Experiment: Fluorescence polarization (FP) competition assay with AJAP-1probe, calculated Ki
Format: binding
Conditions: read-out: Ki (nM) mean ± SEM
Experimental: Fluorescence polarization (FP). FP assay was employed to determine the binding affinity of peptides in flat bottom black 384-well plates (Corning Life Science) using a Safire2 plate reader (Tecan). All experiments were conducted in 1×PBS (pH 7.4) containing 1% bovine serum albumin (BSA) at rt. The fluorescence polarization values were measured using excitation/emission wavelengths of 530/580 nm. The instrumental Z-factor was adjusted to obtain the maximum fluorescence intensity and the G-factor was calibrated to give an initial millipolarization value of 20 mP. All FP assays including saturation or competition experiments were performed using 25 nM of TAMRA labeled peptides as probes. For saturation assay, the millipolarization values were measured after mixing of probes with 12 serial 1 to 1 diluted concentrations of Sushi domains (SD1/2) protein. All experiments were performed in triplicate and the data were plotted to the one-site binding model using GraphPad Prism 9 to calculate the Kd of probes. […] The experiments were performed at least in triplicate and the data were fitted to the sigmoidal dose response curve using GraphPad Prism 9 to obtain the IC50 of peptides. The Ki values were calculated according to Nikolovska-Coleska et al^310.

[1] = Table 4, truncation and elongation scans of APP epitope
[2] = Table 7, Ala-, D-amino acids and N-methylation scans of APPWT
[3] = Table 10, deep mutational scanning validation variants of APPWT

Ki [1]: 513 ± 17 nM
SMILES: CC(=O)N[C@@H](CC(=O)O)C(=O)N[C@@H](CO)C(=O)N[C@@H](C)C(=O)N[C@@H](CC(=O)O)C(=O)N[C@@H](C)C(=O)N[C@@H](CCC(=O)O)C(=O)N[C@@H](CCC(=O)O)C(=O)N[C@@H](CC(=O)O)C(=O)N[C@@H](CC(=O)O)C(=O)N[C@@H](CO)C(=O)N[C@@H](CC(=O)O)C(=O)N[C@H](C(=O)N[C@@H](Cc1c[nH]c2ccccc12)C(=O)N[C@@H](Cc1c[nH]c2ccccc12)C(=O)NCC(=O)NCC(=O)N[C@@H](C)C(=O)N[C@@H](CC(=O)O)C(=O)N[C@H](C(=O)N[C@@H](CC(=O)O)C(=O)N[C@@H](Cc1ccc(O)cc1)C(=O)N[C@@H](C)C(=O)N[C@@H](CC(=O)O)C(N)=O)[C@@H](C)O)C(C)C (Ac-DSADAEEDDSDVWWGGADTDYAD-NH2)

Ki [1]: 1500 ± 66 nM
SMILES: CC(=O)N[C@@H](CC(=O)O)C(=O)N[C@@H](CO)C(=O)N[C@@H](CC(=O)O)C(=O)N[C@H](C(=O)N[C@@H](Cc1c[nH]c2ccccc12)C(=O)N[C@@H](Cc1c[nH]c2ccccc12)C(=O)NCC(=O)NCC(=O)N[C@@H](C)C(=O)N[C@@H](CC(=O)O)C(=O)N[C@H](C(=O)N[C@@H](CC(=O)O)C(=O)N[C@@H](Cc1ccc(O)cc1)C(=O)N[C@@H](C)C(=O)N[C@@H](CC(=O)O)C(N)=O)[C@@H](C)O)C(C)C (Ac-DSDVWWGGADTDYAD-NH2)

Ki [1]: 6100 ± 307 nM
SMILES: CC(=O)N[C@@H](CC(=O)O)C(=O)N[C@H](C(=O)N[C@@H](Cc1c[nH]c2ccccc12)C(=O)N[C@@H](Cc1c[nH]c2ccccc12)C(=O)NCC(=O)NCC(=O)N[C@@H](C)C(=O)N[C@@H](CC(=O)O)C(=O)N[C@H](C(=O)N[C@@H](CC(=O)O)C(=O)N[C@@H](Cc1ccc(O)cc1)C(=O)N[C@@H](C)C(=O)N[C@@H](CC(=O)O)C(N)=O)[C@@H](C)O)C(C)C (Ac-DVWWGGADTDYAD-NH2)

Ki [2]: 1240 ± 65 nM
SMILES: CC(=O)N[C@@H](CCC(=O)O)C(=O)N[C@@H](C)C(=O)N[C@@H](CC(=O)O)C(=O)N[C@@H](CO)C(=O)N[C@@H](CC(=O)O)C(=O)N[C@H](C(=O)N[C@@H](Cc1c[nH]c2ccccc12)C(=O)N[C@@H](Cc1c[nH]c2ccccc12)C(=O)NCC(=O)NCC(=O)N[C@@H](C)C(=O)N[C@@H](CC(=O)O)C(=O)N[C@H](C(=O)N[C@@H](CC(=O)O)C(N)=O)[C@@H](C)O)C(C)C (Ac-EADSDVWWGGADTD-NH2)

Ki [2]: 1830 ± 54 nM
SMILES: CC(=O)N[C@@H](CCC(=O)O)C(=O)N[C@@H](CC(=O)O)C(=O)N[C@@H](C)C(=O)N[C@@H](CO)C(=O)N[C@@H](CC(=O)O)C(=O)N[C@H](C(=O)N[C@@H](Cc1c[nH]c2ccccc12)C(=O)N[C@@H](Cc1c[nH]c2ccccc12)C(=O)NCC(=O)NCC(=O)N[C@@H](C)C(=O)N[C@@H](CC(=O)O)C(=O)N[C@H](C(=O)N[C@@H](CC(=O)O)C(N)=O)[C@@H](C)O)C(C)C (Ac-EDASDVWWGGADTD-NH2)

Ki [2]: 660 ± 21 nM
SMILES: CC(=O)N[C@@H](CCC(=O)O)C(=O)N[C@@H](CC(=O)O)C(=O)N[C@@H](CC(=O)O)C(=O)N[C@@H](C)C(=O)N[C@@H](CC(=O)O)C(=O)N[C@H](C(=O)N[C@@H](Cc1c[nH]c2ccccc12)C(=O)N[C@@H](Cc1c[nH]c2ccccc12)C(=O)NCC(=O)NCC(=O)N[C@@H](C)C(=O)N[C@@H](CC(=O)O)C(=O)N[C@H](C(=O)N[C@@H](CC(=O)O)C(N)=O)[C@@H](C)O)C(C)C (Ac-EDDADVWWGGADTD-NH2)

Ki [2]: 3076 ± 22 nM
SMILES: CC(=O)N[C@@H](CCC(=O)O)C(=O)N[C@@H](CC(=O)O)C(=O)N[C@@H](CC(=O)O)C(=O)N[C@@H](CO)C(=O)N[C@@H](C)C(=O)N[C@H](C(=O)N[C@@H](Cc1c[nH]c2ccccc12)C(=O)N[C@@H](Cc1c[nH]c2ccccc12)C(=O)NCC(=O)NCC(=O)N[C@@H](C)C(=O)N[C@@H](CC(=O)O)C(=O)N[C@H](C(=O)N[C@@H](CC(=O)O)C(N)=O)[C@@H](C)O)C(C)C (Ac-EDDSAVWWGGADTD-NH2)

Ki (Table 7, cells printed in μM): > 62500 nM
SMILES: CC(=O)N[C@@H](CCC(=O)O)C(=O)N[C@@H](CC(=O)O)C(=O)N[C@@H](CC(=O)O)C(=O)N[C@@H](CO)C(=O)N[C@@H](CC(=O)O)C(=O)N[C@@H](C)C(=O)N[C@@H](Cc1c[nH]c2ccccc12)C(=O)N[C@@H](Cc1c[nH]c2ccccc12)C(=O)NCC(=O)NCC(=O)N[C@@H](C)C(=O)N[C@@H](CC(=O)O)C(=O)N[C@H](C(=O)N[C@@H](CC(=O)O)C(N)=O)[C@@H](C)O (Ac-EDDSDAWWGGADTD-NH2)

Ki [3]: 401 ± 7 nM
SMILES: CC[C@H](C)[C@H](NC(=O)[C@H](CC(=O)O)NC(=O)[C@H](CO)NC(=O)[C@H](CC(=O)O)NC(=O)[C@H](CC(=O)O)NC(=O)[C@H](CCC(=O)O)NC(C)=O)C(=O)N[C@@H](Cc1c[nH]c2ccccc12)C(=O)N[C@@H](Cc1c[nH]c2ccccc12)C(=O)NCC(=O)NCC(=O)N[C@@H](C)C(=O)N[C@@H](CC(=O)O)C(=O)N[C@H](C(=O)N[C@@H](CC(=O)O)C(N)=O)[C@@H](C)O (Ac-EDDSDIWWGGADTD-NH2)

Ki [2]: 8790 ± 92 nM
SMILES: CC(=O)N[C@@H](CCC(=O)O)C(=O)N[C@@H](CC(=O)O)C(=O)N[C@@H](CC(=O)O)C(=O)N[C@@H](CO)C(=O)N[C@@H](CC(=O)O)C(=O)N[C@H](C(=O)N[C@@H](C)C(=O)N[C@@H](Cc1c[nH]c2ccccc12)C(=O)NCC(=O)NCC(=O)N[C@@H](C)C(=O)N[C@@H](CC(=O)O)C(=O)N[C@H](C(=O)N[C@@H](CC(=O)O)C(N)=O)[C@@H](C)O)C(C)C (Ac-EDDSDVAWGGADTD-NH2)

Ki [3]: 4804 ± 43 nM
SMILES: CC(=O)N[C@@H](CCC(=O)O)C(=O)N[C@@H](CC(=O)O)C(=O)N[C@@H](CC(=O)O)C(=O)N[C@@H](CO)C(=O)N[C@@H](CC(=O)O)C(=O)N[C@H](C(=O)N[C@@H](CC(=O)O)C(=O)N[C@@H](Cc1c[nH]c2ccccc12)C(=O)NCC(=O)NCC(=O)N[C@@H](C)C(=O)N[C@@H](CC(=O)O)C(=O)N[C@H](C(=O)N[C@@H](CC(=O)O)C(N)=O)[C@@H](C)O)C(C)C (Ac-EDDSDVDWGGADTD-NH2)

Ki [3]: 951 ± 20 nM
SMILES: CC[C@H](C)[C@H](NC(=O)[C@@H](NC(=O)[C@H](CC(=O)O)NC(=O)[C@H](CO)NC(=O)[C@H](CC(=O)O)NC(=O)[C@H](CC(=O)O)NC(=O)[C@H](CCC(=O)O)NC(C)=O)C(C)C)C(=O)N[C@@H](Cc1c[nH]c2ccccc12)C(=O)NCC(=O)NCC(=O)N[C@@H](C)C(=O)N[C@@H](CC(=O)O)C(=O)N[C@H](C(=O)N[C@@H](CC(=O)O)C(N)=O)[C@@H](C)O (Ac-EDDSDVIWGGADTD-NH2)

Ki (Table 7, cells printed in μM): > 62500 nM
SMILES: CC(=O)N[C@@H](CCC(=O)O)C(=O)N[C@@H](CC(=O)O)C(=O)N[C@@H](CC(=O)O)C(=O)N[C@@H](CO)C(=O)N[C@@H](CC(=O)O)C(=O)N[C@H](C(=O)N[C@@H](Cc1c[nH]c2ccccc12)C(=O)N[C@@H](C)C(=O)NCC(=O)NCC(=O)N[C@@H](C)C(=O)N[C@@H](CC(=O)O)C(=O)N[C@H](C(=O)N[C@@H](CC(=O)O)C(N)=O)[C@@H](C)O)C(C)C (Ac-EDDSDVWAGGADTD-NH2)

Ki [3]: 429 ± 7 nM
SMILES: CC(=O)N[C@@H](CCC(=O)O)C(=O)N[C@@H](CC(=O)O)C(=O)N[C@@H](CC(=O)O)C(=O)N[C@@H](CO)C(=O)N[C@@H](CC(=O)O)C(=O)N[C@H](C(=O)N[C@@H](Cc1c[nH]c2ccccc12)C(=O)N[C@@H](Cc1c[nH]c2ccccc12)C(=O)N[C@@H](CC(=O)O)C(=O)NCC(=O)N[C@@H](C)C(=O)N[C@@H](CC(=O)O)C(=O)N[C@H](C(=O)N[C@@H](CC(=O)O)C(N)=O)[C@@H](C)O)C(C)C (Ac-EDDSDVWWDGADTD-NH2)

Ki [2]: 653 ± 25 nM
SMILES: CC(=O)N[C@@H](CCC(=O)O)C(=O)N[C@@H](CC(=O)O)C(=O)N[C@@H](CC(=O)O)C(=O)N[C@@H](CO)C(=O)N[C@@H](CC(=O)O)C(=O)N[C@H](C(=O)N[C@@H](Cc1c[nH]c2ccccc12)C(=O)N[C@@H](Cc1c[nH]c2ccccc12)C(=O)NCC(=O)NCC(=O)N[C@@H](C)C(=O)N[C@@H](C)C(=O)N[C@H](C(=O)N[C@@H](CC(=O)O)C(N)=O)[C@@H](C)O)C(C)C (Ac-EDDSDVWWGGAATD-NH2)

Ki [2]: 480 ± 8 nM
SMILES: CC(=O)N[C@@H](CCC(=O)O)C(=O)N[C@@H](CC(=O)O)C(=O)N[C@@H](CC(=O)O)C(=O)N[C@@H](CO)C(=O)N[C@@H](CC(=O)O)C(=O)N[C@H](C(=O)N[C@@H](Cc1c[nH]c2ccccc12)C(=O)N[C@@H](Cc1c[nH]c2ccccc12)C(=O)NCC(=O)NCC(=O)N[C@@H](C)C(=O)N[C@@H](CC(=O)O)C(=O)N[C@@H](C)C(=O)N[C@@H](CC(=O)O)C(N)=O)C(C)C (Ac-EDDSDVWWGGADAD-NH2)

Ki [3]: 739 ± 9 nM
SMILES: CC(=O)N[C@@H](CCC(=O)O)C(=O)N[C@@H](CC(=O)O)C(=O)N[C@@H](CC(=O)O)C(=O)N[C@@H](CO)C(=O)N[C@@H](CC(=O)O)C(=O)N[C@H](C(=O)N[C@@H](Cc1c[nH]c2ccccc12)C(=O)N[C@@H](Cc1c[nH]c2ccccc12)C(=O)NCC(=O)NCC(=O)N[C@@H](C)C(=O)N[C@@H](CC(=O)O)C(=O)N[C@@H](Cc1c[nH]cn1)C(=O)N[C@@H](CC(=O)O)C(N)=O)C(C)C (Ac-EDDSDVWWGGADHD-NH2)

Ki [2]: 786 ± 29 nM
SMILES: CC(=O)N[C@@H](CCC(=O)O)C(=O)N[C@@H](CC(=O)O)C(=O)N[C@@H](CC(=O)O)C(=O)N[C@@H](CO)C(=O)N[C@@H](CC(=O)O)C(=O)N[C@H](C(=O)N[C@@H](Cc1c[nH]c2ccccc12)C(=O)N[C@@H](Cc1c[nH]c2ccccc12)C(=O)NCC(=O)NCC(=O)N[C@@H](C)C(=O)N[C@@H](CC(=O)O)C(=O)N[C@H](C(=O)N[C@@H](C)C(N)=O)[C@@H](C)O)C(C)C (Ac-EDDSDVWWGGADTA-NH2)
